Test results reported in patent publication US4780281A, “Method for assay of peroxidase enzyme or reducing substrate activity” (Wayne State University, priority 1985, dated 1988).
Each block holds one compound with its values, some of them ahead of it.

Columns and labels:
[1] = molecular target: lactoperoxidase (Bos taurus, UniProt P80025); experiment: PPHP as peroxidase substrate; format: biochemical
Source text: (§1) A practical method is described for the determination of peroxidase enzyme activity that monitors the ability of enzyme preparations to reduce PPHP in the presence of a reducing substrate. […] The alcohol product and hydroperoxide substrate are conveniently separated by HPLC and reliably quantitated by ultraviolet detection. These properties make PPHP an ideal substrate for the assay. […] Thus, the procedure is a general assay for peroxidase activity.

[2] = molecular target: T1, catalase (Homo sapiens, UniProt P04040); experiment: PPHP as peroxidase substrate; format: biochemical
T1 sequence (P04040 2-527 limits assumed): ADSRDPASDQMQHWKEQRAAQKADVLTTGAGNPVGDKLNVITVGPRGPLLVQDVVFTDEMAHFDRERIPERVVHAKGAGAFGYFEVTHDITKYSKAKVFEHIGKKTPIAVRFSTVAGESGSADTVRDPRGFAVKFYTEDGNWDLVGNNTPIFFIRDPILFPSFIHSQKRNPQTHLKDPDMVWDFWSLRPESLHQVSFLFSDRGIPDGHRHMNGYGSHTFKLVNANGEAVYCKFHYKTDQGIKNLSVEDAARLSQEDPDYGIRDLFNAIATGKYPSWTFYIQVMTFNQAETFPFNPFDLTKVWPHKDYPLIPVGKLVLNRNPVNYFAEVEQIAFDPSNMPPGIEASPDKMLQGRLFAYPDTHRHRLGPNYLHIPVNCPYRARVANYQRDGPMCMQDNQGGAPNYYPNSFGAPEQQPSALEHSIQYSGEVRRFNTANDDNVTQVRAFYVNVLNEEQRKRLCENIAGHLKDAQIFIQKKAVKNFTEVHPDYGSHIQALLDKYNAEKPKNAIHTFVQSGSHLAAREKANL
Source text: as §1

[3] = molecular target: T2, glutathione peroxidase (Homo sapiens, UniProt P07203); experiment: PPHP as peroxidase substrate; format: biochemical
T2 sequence (P07203 1-203): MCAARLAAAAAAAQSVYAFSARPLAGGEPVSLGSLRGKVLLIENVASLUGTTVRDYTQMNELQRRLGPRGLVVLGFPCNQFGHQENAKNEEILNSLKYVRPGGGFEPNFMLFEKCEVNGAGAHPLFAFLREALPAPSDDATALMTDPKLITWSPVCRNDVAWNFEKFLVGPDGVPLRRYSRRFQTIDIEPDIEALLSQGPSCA
Source text: as §1

[4] = system: cytochrome P-450; experiment: PPHP as peroxidase substrate; format: biochemical
Source text: as §1

[5] = molecular target: T3, Horseradish peroxidase (HRP) (Armoracia rusticana, UniProt P00433); experiment: Reducing substrate specificity assay (HRP-catalysed reduction of PPHP to PPA, HPLC); format: biochemical; details: for Index = concentration PPA/(concentration PPA+concentration PPHP): 100 microM PPHP, 0.1 M potassium citrate pH 5.5, 0.2 mM Tween-20, 25° C., 6 minutes, triplicate
T3 construct: purchased Sigma Chemical Corporation Type VI
T3 sequence (P00433 31-338 limits assumed): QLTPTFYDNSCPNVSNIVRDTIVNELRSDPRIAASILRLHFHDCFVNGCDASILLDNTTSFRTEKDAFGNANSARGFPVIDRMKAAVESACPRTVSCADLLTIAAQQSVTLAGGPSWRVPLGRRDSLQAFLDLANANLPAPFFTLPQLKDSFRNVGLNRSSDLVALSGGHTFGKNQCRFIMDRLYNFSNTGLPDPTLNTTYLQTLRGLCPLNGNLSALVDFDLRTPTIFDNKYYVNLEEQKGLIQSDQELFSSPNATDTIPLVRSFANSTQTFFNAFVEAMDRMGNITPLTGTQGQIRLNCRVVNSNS
Method: Incubations were performed in triplicate with a 25° C. shaker bath in 16×150 mm disposable glass test tubes. 60 nM HRP was incubated at 25° C. in 0.1 M potassium citrate buffer, […] containing 0.2 mM Tween 20, with 100 microM PPHP and 200 microM potential reducing substrate. The index value is defined as, Index=concentration PPA/(concentration PPA+concentration PPHP). Most reducing substrates were prepared daily as 8 mM stocks in either water, methanol, or methanol:water (1:1 v/v). DPBF was dissolved in acetone. Uric acid was dissolved in DMSO. Epinephrine required titration with dilute hydrochloric acid prior to dissolution in methanol. Indoleacetic acid, tryptophan, cysteine, and methionine were titrated with dilute potassium hydroxide prior to dissolution in methanol:water (1:1 v/v).
For the data in Table 1 hereinafter, reducing substrates (50 microliters of 8 mM stocks--see Table 1 for preparation) were transferred into 1.9 ml of 0.1 M potassium citrate buffer, pH 5.5, containing 0.2 mM Tween-20 and allowed to thermally equilibrate for 10 minutes. HRP (24 microl of a 5 microM stock) was added to each trial and preincubated for three minutes prior to the addition of PPHP (25 microl of 8 mM stock in methanol). Incubations were stopped at 6 minutes by pouring mixtures onto Baker SPE System columns (3 ml octyldecylsilyl, from J. T. Baker & Co.). The columns were prepared prior to use by passing 3×3 ml aliquots of water through the columns with the Baker SPE vacuum system. At the stop time, an individual trial was poured onto the column and aspirated to near dryness. Each individual trial was set aside until the reminder of the trials were treated in the same manner. After all incubation trials were partitioned onto the SPE columns, each individual incubation tube was washed with 2 ml of 0.2 mM Tween 20 in distilled water and poured onto the corresponding SPE column. This Tween 20/water wash was aspirated to near dryness with vacuum. Analytes were eluted into 12×76 mm disposable glass test tubes with 2×1 ml aliquots of methanol (HPLC grade, Fisher Scientific Co.). The sample collection rack for the Baker 10 SPE System was modified to accommodate these 12 mm diameter tubes. The SPE columns were aspirated dry at this point and discarded. An internal chromatographic standard of p-nitrobenzyl alcohol (25 microl of 8 mM stock solution in methanol) was added to each methanol eluent, mixed by vortexing, and then clarified by filtration through a 0.45 micron nylon Swinney type filter (Rainin Instrument Corp.). The filtered eluents were used directly for chromatographic analysis.
The Initial incubation conditions were 0.1 M potassium citrate buffer, pH 5.5, with 0.2 mM Tween 20, 200 microM reducing substrate, 60 nM HRP and […] PPHP (structure 1).
Quantitation was determined by adding an internal standard (p-nitrobenzyl alcohol: annotated as I.S. on chromatograms) and ratioing peak areas. Chromatograms are 40 microliters injections onto a 5 micron Zorbax octylsilyl reverse-phase column (DuPont Instrument Corp.) with an isocratic elution mobile of 56% v/v methanol in water at 2 ml per min. U.V. monitoring was with a fixed 254 nm detector (Varian 5000, Varian Instrument Corp.). Vertical numbers are associated with peak retention times in minutes (the integrator used was a Vista 402 System, Varian Instruments).
Analyte concentrations were calculated by an internal standard method of calculation. This required individual incubation chromatograms to be compared to a calibration chromatogram generated by chromatographing a 40 microliter sample aliquot of a solution of PPHP as described under calculations.

[6] = Solubility of PPHP; format: physicochemical; details: aqueous buffers
[7] = molecular target: T4, Prostaglandin H Synthase (Ovis aries, UniProt P05979); experiment: Reducing substrate efficiency for PPHP reduction, conditions as for Table 1; format: biochemical
T4 sequence (P05979 25-600): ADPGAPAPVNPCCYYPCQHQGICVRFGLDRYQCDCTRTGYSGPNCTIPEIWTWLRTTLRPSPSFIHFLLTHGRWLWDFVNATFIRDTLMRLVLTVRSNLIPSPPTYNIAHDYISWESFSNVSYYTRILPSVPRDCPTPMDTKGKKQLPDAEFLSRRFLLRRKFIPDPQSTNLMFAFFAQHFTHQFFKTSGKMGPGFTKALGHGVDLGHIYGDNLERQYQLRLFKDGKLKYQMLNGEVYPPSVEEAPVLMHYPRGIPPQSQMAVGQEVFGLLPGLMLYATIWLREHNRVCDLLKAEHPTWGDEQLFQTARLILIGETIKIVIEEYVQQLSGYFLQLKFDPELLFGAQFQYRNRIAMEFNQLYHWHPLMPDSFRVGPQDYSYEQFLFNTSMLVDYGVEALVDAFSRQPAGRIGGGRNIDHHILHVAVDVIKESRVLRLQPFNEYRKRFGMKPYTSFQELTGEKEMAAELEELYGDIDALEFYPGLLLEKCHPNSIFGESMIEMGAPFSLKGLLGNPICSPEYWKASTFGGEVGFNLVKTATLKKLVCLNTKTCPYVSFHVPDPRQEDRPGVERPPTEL

[8] = Stability of PPHP; format: physicochemical; details: protected from light and metals
[9] = molecular target: T5, HRP compound II (Armoracia rusticana, UniProt P00433); details: pH 8.11; read-out: Km for the reaction with HRP compound II; cited from earlier work
T5 sequence (P00433 31-353): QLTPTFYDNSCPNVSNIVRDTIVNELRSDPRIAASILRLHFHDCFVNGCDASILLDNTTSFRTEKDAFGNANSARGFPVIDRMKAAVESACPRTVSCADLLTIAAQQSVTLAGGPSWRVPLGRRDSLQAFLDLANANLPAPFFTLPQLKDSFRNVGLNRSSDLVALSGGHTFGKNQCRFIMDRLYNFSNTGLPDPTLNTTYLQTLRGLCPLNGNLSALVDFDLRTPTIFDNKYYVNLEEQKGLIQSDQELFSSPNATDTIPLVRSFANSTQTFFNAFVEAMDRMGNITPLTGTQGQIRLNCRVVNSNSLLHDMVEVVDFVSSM

[10] = system: HRP isoenzymes; details: similar preparation of HRP isoenzymes, phenylperoxyacetic acid; cited from earlier work
[11] = molecular target: T6, HRP (Armoracia rusticana, UniProt P00433); experiment: Steady-state kinetic assay (PPA production, SPE/HPLC); format: biochemical, horseradish; details: HRP with phenol as reducing substrate
T6 construct: purchased Sigma Chemical Corporation Type VI
T6 sequence (P00433 31-338 limits assumed): T3 sequence (P00433 31-338 limits assumed)
Method: The incubations were terminated at 2, 4, and 8 minutes by pouring the incubations onto SPE columns as described in Methods. […] The data points are the average of triplicates. […] All buffers contained 0.2 mM Tween-20. Incubations were stopped at 4 minutes by pouring onto SPE columns as described in Methods. Each data point is the average of triplicates. […] Incubations were stopped at 4 minutes by pouring on SPE columns as described in Methods. PPA concentrations were converted into velocities by dividing by the incubation time and assuming linear steady-state velocities over the first 8 minutes (see FIG. 3). Five replicates of each phenol concentration were assayed. Km and Vmax were determined by linear regression analysis upon the non-averaged data points.
We designed the assays with 4 minute termination times converting either the concentration of PPHP or PPA into velocities.

[12] = 60 nM HRP, 200 microM reducing substrate

suitability as peroxidase substrate [1]: excellent substrate
suitability as peroxidase substrate [2]: excellent substrate
suitability as peroxidase substrate [3]: excellent substrate
suitability as peroxidase substrate [4]: excellent substrate
suitability as peroxidase substrate ([5]; HRP): excellent substrate
solubility [6]: soluble in aqueous buffers
suitability as peroxidase substrate ([7]; protaglandin H (PGH) synthase): excellent substrate
SMILES: OOCCC/C=C/c1ccccc1 [PPHP, 1-hydroperoxy-5-Phenyl-4-pentene]
stability [8]: stable if protected from light and metals

SMILES: Cc1ccc(O)cc1 [p-cresol]
Km [9]: ~180 µM

Index = concentration PPA/(concentration PPA+concentration PPHP) [5, 12]: 0.97 ± 0.01
SMILES: Oc1cccc(O)c1O [Pyrogallol, pyrogallol]
turnover for pyrogallol oxidation [10]: 18500 min⁻¹

SMILES: Oc1ccccc1 [Phenol, phenol]
Index = concentration PPA/(concentration PPA+concentration PPHP) [5, 12]: 0.97 ± 0.01
reducing substrate quality for HRP (FIG. 1) ([5]; 200 microM reducing substrate, 60 nM HRP, pH 5.5): good
turnover number of PHP reduction [11]: 10500 min
Index of Efficiency of Reducing Substrates ([7]; Prostaglandin H synthase, under the conditions for Table 1): .51
